Results from patent EP0551518A1, “QUINOLINECARBOXYLIC ACID DERIVATIVE” (NIPPON SHINYAKU COMPANY, LIMITED, priority 1990, dated 1992).
≈ marks a conversion by molar mass, not a printed value. Structures can show the parent of a compound that is named as a salt. Where two headings read alike, the source gives them in different places.

What was measured:
Assay in all cases: Determination of minimal inhibitory concentration of growth (MIC)-1, agar plate dilution method
Format in all cases: cell-based
[1] = test system: Staphylococcus aureus 209-P JC-1; settings: Staphylococcus aureus 209-P JC-1, agar plate dilution, 10⁶ CFU/ml, 37°C, 18 hours
Protocol: (§1) Method: MIC was determined by the agar plate dilution method in accordance with the standard protocol of Japan Society of Chemotherapy (cf. Chemotherapy 29 (1), 76-79, 1981). Each bacterial culture obtained by 18-hour incubation in a sensitivity assay bouillon medium at 37°C was diluted to 10⁶ CFU/ml with the same medium. Using a microplanter, a sensitivity assay agar medium containing the test drug was inoculated with the diluted culture and incubated at 37°C for 18 hours. The MIC value was then determined. As reference drugs, 6-fluoro-1-methyl-4-oxo-7-(1-piperazinyl)-4H-[1,3]thiazeto[3,2-a]quinoline-3-carboxylic acid (referred to as control), ciprofloxacin (CPFX) and ofloxacin (OFLX) were used.

[2] = test system: Micrococcus luteus ATCC 9341; settings: Micrococcus luteus ATCC 9341, agar plate dilution, 10⁶ CFU/ml, 37°C, 18 hours
Protocol: as §1

[3] = test system: Staphylococcus aureus Smith; settings: Staphylococcus aureus Smith, agar plate dilution, 10⁶ CFU/ml, 37°C, 18 hours
Protocol: as §1

Escherichia coli KC-14 = settings: 10⁶ CFU/ml, 37°C
Protocol: as §1

[4] = test system: Staphylococcus epider-midis IFO 12993; settings: Staphylococcus epider-midis IFO 12993, agar plate dilution, 10⁶ CFU/ml, 37°C, 18 hours
Protocol: as §1

[5] = test system: Staphylococcus aureus OWPH 1984 (MRSA); settings: Staphylococcus aureus OWPH 1984 (MRSA), agar plate dilution, 10⁶ CFU/ml, 37°C, 18 hours
Protocol: as §1

[6] = test system: Bacillus subtilis ATCC 6633; settings: Bacillus subtilis ATCC 6633, agar plate dilution, 10⁶ CFU/ml, 37°C, 18 hours
Protocol: as §1

[7] = test system: Pseudomonas aeruginosa IFO 3445; settings: Pseudomonas aeruginosa IFO 3445, agar plate dilution, 10⁶ CFU/ml, 37°C, 18 hours
Protocol: as §1

[8] = test system: Enterococcus faecalis ATCC 29212; settings: Enterococcus faecalis ATCC 29212, agar plate dilution, 10⁶ CFU/ml, 37°C, 18 hours
Protocol: as §1

Proteus vulgaris HX-19 = settings: Proteus vulgaris HX-19, agar plate dilution, 10⁶ CFU/ml, 37°C, 18 hours
Protocol: as §1

[9] = test system: Staphylococcus aureus OWPH 2125 (MRSA, PCA^r ); settings: Staphylococcus aureus OWPH 2125 (MRSA, PCA^r), agar plate dilution, 10⁶ CFU/ml, 37°C, 18 hours
Protocol: as §1

[10] = Staphylococcus aureus, 209P, 18 h, read-out: MIC
[11] = Escherichia coli, KC14, 18 h, read-out: MIC
[12] = Staphylococcus, IFO12993, 18 h, read-out: MIC
[13] = Staphylococcus aureus, MRSA, 18 h, read-out: MIC
[14] = Pseudomonas aeruginosa, IFO3445, 18 h, read-out: MIC
[15] = Proteus vulgaris, HX19, 18 h, read-out: MIC

Row | MIC [1, 10] | MIC ([2]; ATCC9341, read-out: MIC) | MIC ([3]; read-out: MIC) | MIC (Escherichia coli KC-14; [11]) | MIC [4, 12] | MIC [5, 13] | MIC ([6]; ATCC6633, read-out: MIC) | MIC [7, 14] | MIC ([8]; ATCC29212, read-out: MIC) | MIC (Proteus vulgaris HX-19; [15]) | MIC [9, 13] | Compound | other results
1 |  |  |  |  |  |  |  |  |  |  |  | CC1Sc2c(C(=O)O)c(=O)c3cc(F)c(-c4ccc(N)cc4)cc3n21 (stereo not drawn) [Example 56, 7-(4-Aminophenyl)-6-fluoro-1-methyl-4-oxo-4H-[1,3]thiazeto[3,2-a]quinoline-3-carboxylic acid 1/2 sulfate] | MIC [1]: 0.025 μ g/ml; MIC [2]: 0.20 μ g/ml; MIC [3]: ≤ 0.006 μ g/ml; MIC (Escherichia coli KC-14; 18 hours): 0.05 μ g/ml; MIC [4]: 0.012 μ g/ml; MIC [5]: 0.012 μ g/ml; MIC [6]: ≤ 0.006 μ g/ml; MIC [7]: 0.20 μ g/ml; MIC [8]: 0.05 μ g/ml; MIC (Proteus vulgaris HX-19): ≤ 0.006 μ g/ml; MIC [9]: 0.05 μ g/ml
2 | 0.012 µg/mL (≈ 0.0334 µM) | 0.39 µg/mL (≈ 1.09 µM) | ≤ 0.006 µg/mL | 0.2 µg/mL (≈ 0.557 µM) | 0.012 µg/mL (≈ 0.0334 µM) | 0.012 µg/mL (≈ 0.0334 µM) | ≤ 0.006 µg/mL | 0.39 µg/mL (≈ 1.09 µM) | 0.05 µg/mL (≈ 0.139 µM) | 0.1 µg/mL (≈ 0.278 µM) | 0.05 µg/mL (≈ 0.139 µM) | CC1Sc2c(C(=O)O)c(=O)c3cc(F)c(-c4ccccc4)c(F)c3n21 (stereo not drawn) [Example 24, 6,8-Difluoro-1-methyl-4-oxo-7-phenyl-4H-[1,3]thiazeto[3,2-a]quinoline-3-carboxylic acid] | 
3 | 0.1 µg/mL (≈ 0.269 µM) | 0.39 µg/mL (≈ 1.05 µM) | 0.025 µg/mL (≈ 0.0673 µM) | 0.39 µg/mL (≈ 1.05 µM) | 0.1 µg/mL (≈ 0.269 µM) | 0.025 µg/mL (≈ 0.0673 µM) | 0.012 µg/mL (≈ 0.0323 µM) | 1.56 µg/mL (≈ 4.2 µM) | 0.2 µg/mL (≈ 0.539 µM) | 0.78 µg/mL (≈ 2.1 µM) | 0.2 µg/mL (≈ 0.539 µM) | COc1ccc(-c2cc3c(cc2F)c(=O)c(C(=O)O)c2n3C(C)S2)cc1 (stereo not drawn) [Example 38, 6-Fluoro-7-(4-methoxyphenyl)-1-methyl-4-oxo-4H-[1,3]th-iazeto[3,2-a]quinoline-3-carboxylic acid] | 
